Laboratory results as given in publication PMC6950567, “Evaluation of Marine Diindolinonepyrane in Vitro and in Vivo: Permeability Characterization in Caco-2 Cells Monolayer and Pharmacokinetic Properties in Beagle Dogs” (Marine Drugs, 2019).
Read-outs that look alike come from different tables or passages of the source.

Assays:
Caco-2 cells monolayer = Caco-2 cells monolayer absorption and bidirectional transport experiment; format: in vitro ADME, human
Protocol: (§1) The samples included three control drugs (fenoterol, propranolol, and digoxin) and 2,5-BHPA. […] For transfer in the AP→BL direction, 0.075 mL drug solution was added to the AP side as the supply pool, and 0.25 mL HBSS solution was added to the BL side as the receiving pool. In the BL→AP direction, 0.25 mL compound solution was added to the BL side as the supply pool, and 0.075 mL HBSS solution was added to the AP side as the receiving pool. The transwell plate was then cultured in an incubator at 37 °C for 2 h. Samples on the AP side and BL side were collected, respectively. Then, acetonitrile containing an internal label was added to each upper chamber to lyse transport membranes. The total recovery was calculated by collecting the amount of lead compound absorbed on the membrane surface or accumulated in the cell. Finally, the concentration of each sample was calculated as the ratio of the peak area between the compound and the inner target through mass spectrum analysis (API 4000).
(§2) Papp = (dCr/dt) × Vr/(A × C0)(2) where dCr/dt is the cumulative compound concentration per unit of time (µM/s); Vr is the volume in the receiving hole (mL); A is the transport membrane area; and C0 is the compound initiation concentration (µM).

[1] = as above; format: in vitro ADME, human; details: human; for Papp A→B at 2 h, 2 µM: read-out: Mean Papp AP to BL; for recovery at 2 h: direction not specified, read-out: total recovery rate of control drugs; for Papp B→A at 2 h, 2 µM: read-out: Mean Papp BL to AP
Protocol: as §1, §2

[2] = 2 µM, 0.1% bull serum albumin added
[3] = Caco-2, 2 µM, 0.1% bull serum albumin added

SMILES: NNC(=O)NN1C(=O)c2cc(S(=O)(=O)[O-])cc3c(N)c(S(=O)(=O)[O-])cc(c23)C1=O.[Li+].[Li+] [fluorescence yellow]
- Papp of fluorescence yellow (Caco-2 cell model): 0.15 ± 0.027 × 10^−6 cm·s^−1
- transmittance (Caco-2 cell model): 0.04 ± 0.005%

SMILES: CC(Cc1ccc(O)cc1)NCC(O)c1cc(O)cc(O)c1 (centres unmarked) [Fenoterol, fenoterol, reference compound]
- Recoveries AP to BL (Caco-2 cells monolayer; [2]): 94.38 ± 5.14%
- Total Recoveries AP to BL (Caco-2 cells monolayer; [2]): 96.16 ± 6.72%
- Recoveries AP to BL (Caco-2 cells monolayer; 2 μM, no BSA): 87.67 ± 1.24%
- Total Recoveries AP to BL (Caco-2 cells monolayer; 2 μM, no BSA): 90.92 ± 4.23%
- Papp A→B at 2 h, 2 µM [1, 3]: 0.091 ± 0.012 ×10⁻⁶ cm/s
- Papp A→B at 2 h, 2 µM ([1]; Caco-2, 2 μM, no BSA, 2 h): 0.055 ± 0.008 ×10⁻⁶ cm/s
- recovery at 2 h ([1]; Caco-2, no BSA): > 83%

SMILES: C[C@H]1O[C@@H](O[C@H]2[C@@H](O)C[C@H](O[C@H]3[C@@H](O)C[C@H](O[C@H]4CC[C@@]5(C)[C@H](CC[C@@H]6[C@@H]5C[C@@H](O)[C@]5(C)[C@@H](C7=CC(=O)OC7)CC[C@]65O)C4)O[C@@H]3C)O[C@@H]2C)C[C@H](O)[C@@H]1O [Digoxin, digoxin, reference compound]
- Recoveries AP to BL (Caco-2 cells monolayer; [2]): 84.14 ± 3.13%
- Recoveries BL to AP (Caco-2 cells monolayer; [2]): 93.35 ± 3.56%
- Total Recoveries AP to BL (Caco-2 cells monolayer; [2]): 85.37 ± 3.52%
- Total Recoveries BL to AP (Caco-2 cells monolayer; [2]): 93.43 ± 4.63%
- Recoveries AP to BL (Caco-2 cells monolayer; 2 μM, no BSA): 83.66 ± 3.14%
- Recoveries BL to AP (Caco-2 cells monolayer; 2 μM, no BSA): 82.87 ± 4.38%
- Total Recoveries AP to BL (Caco-2 cells monolayer; 2 μM, no BSA): 86.44 ± 3.51%
- Total Recoveries BL to AP (Caco-2 cells monolayer; 2 μM, no BSA): 83.31 ± 2.40%
- efflux ratio at 2 h, 2 µM [1, 3]: 485
- Papp A→B at 2 h, 2 µM [1, 3]: 0.023 ± 0.001 ×10⁻⁶ cm/s
- Papp B→A at 2 h, 2 µM [1, 3]: 10.4 ± 0.911 ×10⁻⁶ cm/s
- efflux ratio at 2 h, 2 µM ([1]; Caco-2, 2 μM, no BSA): 260
- Papp A→B at 2 h, 2 µM ([1]; Caco-2, 2 μM, no BSA, 2 h): 0.033 ± 0.003 ×10⁻⁶ cm/s
- Papp B→A at 2 h, 2 µM ([1]; Caco-2, 2 μM, no BSA, 2 h): 9.05 ± 0.62 ×10⁻⁶ cm/s
- recovery at 2 h ([1]; Caco-2, text summary, no BSA): > 83%

SMILES: CC(C)NCC(O)COc1cccc2ccccc12 (centres unmarked) [Propranolol, propranolol, reference compound]
- total recovery rate AP→BL (Caco-2 cells monolayer; Caco-2): 100%
- total recovery rate of control drugs (Caco-2 cells monolayer; Caco-2): more than 83%
